Assay results published in patent publication US20090311237A1, “Combination therapy using a soluble hyaluronidase and a bisphosphonate” (priority 2008, published 2009).
Like-named read-outs stand apart in the source and are kept apart here.

Test: Phase 1 Stage 1 clinical pharmacokinetics of SC ZA co-administered with rHuPH20
Type: in vivo, human
Details: human, serum, sc; for Tmax: read-out: Tmax
Protocol: A pharmacokinetic study of zoledronic acid (ZA) co-administered with rHuPH20 in human subjects was conducted. The primary objective of the study was to determine the bioavailability of zoledronic acid dosed via subcutaneous (SC) co-administration with human recombinant hyaluronidase PH20 (rHuPH20). […] The patients were administered the prescribed dosage formulations as follows: Cohorts 1-5 were administered a single subcutaneous infusion in a dosage volume of 100 ml at a rate of 3 mL/min. […] The dosing solution is administered via needle or catheter into the SC space of the left anterior thigh (midway between the anterior iliac crest and the cephalad border of the patella). For cohorts 1-5, the dosing solutions were administered by a controlled rate infusion pump at approximately 3 mL/minute. […] The dosing solutions were administered by syringe push bolus injection. […] Serum concentration of ZA was determined using a qualified LC-MS-MS assay after derivatization with diazomethane (Zhu, L S et al. (2006) Rapid Commun. […] The assay range was from 2.0 to 400 ng/mL with a lower limit of quantitation (LLOQ) at 2.0 ng/mL. […] Non-compartmental analysis was used for derivation of primary and secondary pharmacokinetic (PK) parameters. […] Summary statistics (mean, standard deviation, and median) were calculated using JMP or Microsoft Excel.

[1] = 0.0791 mg/kg, Subj 37, ZA 0.0791 mg/kg SC, inf 0.556 hr, PH20 24000 U
[2] = 0.0794 mg/kg, Subj 74, ZA 0.0794 mg/kg SC, inf […], PH20 6000 U
[3] = 0.082 mg/kg, Subj 63, ZA 0.0820 mg/kg SC, inf […], PH20 6000 U
[4] = 0.0877 mg/kg, Subj 46, ZA 0.0877 mg/kg SC, inf 0.276 hr, PH20 12000 U
[5] = ZA 0.25 mg SC + 24000 U rHuPH20, individual subjects
[6] = ZA 0.25 mg SC + 24000 U rHuPH20, mean, n=3
[7] = ZA 0.25 mg SC + 24000 U rHuPH20, median, n=3
[8] = ZA 0.5 mg SC + 24000 U rHuPH20, individual subjects
[9] = ZA 0.5 mg SC + 24000 U rHuPH20, mean, n=3
[10] = ZA 0.5 mg SC + 24000 U rHuPH20, median, n=3
[11] = ZA 1 mg SC + 24000 U rHuPH20, individual subjects

O=P(O)(O)C(O)(Cn1ccnc1)P(=O)(O)O [ZA, 1-hydroxy-2-(1H-imidazol-1-yl)ethylidene-1,1-bisphosphonic acid] gave an AUC(0-t) (0.0791 mg/kg, AUC (0-12 h), Subj 37, ZA 0.0791 mg/kg SC, inf 0.556 hr, PH20 24000 U) of 499 ng·h/mL, an AUC(0-t) (0.0791 mg/kg, AUC (0-24 h), Subj 37, ZA 0.0791 mg/kg SC, inf 0.556 hr, PH20 24000 U) of 536 ng·h/mL and an AUC(0-t) (0.0791 mg/kg, AUC (0-48 h), Subj 37, ZA 0.0791 mg/kg SC, inf 0.556 hr, PH20 24000 U) of 578 ng·h/mL. For the same compound, the Cmax [1] was 131 ng/mL, the AUC(0-inf) (0.0791 mg/kg, Subj 37, ZA 0.0791 mg/kg SC, inf 0.556 hr, PH20 24000 U, read-out: AUC (0-inf)) was 620 ng·h/mL and the Tmax [1] was 0.81 h. It also gave an AUC(0-t) (0.0794 mg/kg, AUC (0-12 h), Subj 74, ZA 0.0794 mg/kg SC, inf […], PH20 6000 U) of 426 ng·h/mL, an AUC(0-t) (0.0794 mg/kg, AUC (0-24 h), Subj 74, ZA 0.0794 mg/kg SC, inf […], PH20 6000 U) of 467 ng·h/mL and an AUC(0-t) (0.0794 mg/kg, AUC (0-48 h), Subj 74, ZA 0.0794 mg/kg SC, inf […], PH20 6000 U) of 509 ng·h/mL. For the same compound, the Cmax [2] was 120 ng/mL, the AUC(0-inf) (0.0794 mg/kg, Subj 74, ZA 0.0794 mg/kg SC, inf […], PH20 6000 U, read-out: AUC (0-inf)) was 555 ng·h/mL and the Tmax [2] was 0.75 h. For the same compound, the AUC(0-t) (0.082 mg/kg, AUC (0-12 h), Subj 63, ZA 0.0820 mg/kg SC, inf […], PH20 6000 U) was 497 ng·h/mL, the AUC(0-t) (0.082 mg/kg, AUC (0-24 h), Subj 63, ZA 0.0820 mg/kg SC, inf […], PH20 6000 U) was 559 ng·h/mL and the AUC(0-t) (0.082 mg/kg, AUC (0-48 h), Subj 63, ZA 0.0820 mg/kg SC, inf […], PH20 6000 U) was 613 ng·h/mL. The Cmax [3] was 167 ng/mL, the AUC(0-inf) (0.082 mg/kg, Subj 63, ZA 0.0820 mg/kg SC, inf […], PH20 6000 U, read-out: AUC (0-inf)) was 662 ng·h/mL and the Tmax [3] was 0.5 h. The AUC(0-t) (0.0877 mg/kg, AUC (0-12 h), Subj 46, ZA 0.0877 mg/kg SC, inf 0.276 hr, PH20 12000 U) was 610 ng·h/mL, the AUC(0-t) (0.0877 mg/kg, AUC (0-24 h), Subj 46, ZA 0.0877 mg/kg SC, inf 0.276 hr, PH20 12000 U) was 656 ng·h/mL and the AUC(0-t) (0.0877 mg/kg, AUC (0-48 h), Subj 46, ZA 0.0877 mg/kg SC, inf 0.276 hr, PH20 12000 U) was 706 ng·h/mL. The Cmax [4] was 213 ng/mL, the AUC(0-inf) (0.0877 mg/kg, Subj 46, ZA 0.0877 mg/kg SC, inf 0.276 hr, PH20 12000 U, read-out: AUC (0-inf)) was 747 ng·h/mL and the Tmax [4] was 0.78 h. The MRT (0.5 mg, ZA 0.5 mg, SC […] infusion, 100 mL, 3 mL/min, 24000 Units rHuPH20, extrapolated to ∞, individual subjects, read-out: SC MRT) was 3.19 h, the MRT (1 mg, ZA 1 mg, SC […] infusion, 100 mL, 3 mL/min, 24000 Units rHuPH20, extrapolated to ∞, individual subjects, read-out: SC MRT) was 6.93 h and the MRT (2 mg, ZA 2 mg, SC […] infusion, 100 mL, 3 mL/min, 24000 Units rHuPH20, extrapolated to ∞, individual subjects, read-out: SC MRT) was 5.72 h. For the same compound, the MRT (5 mg, ZA 5 mg, SC […] infusion, 100 mL, 3 mL/min, 24000 Units rHuPH20, extrapolated to ∞, individual subjects, read-out: SC MRT) was 10.9 h, the AUC(0-t) (AUC (0-12h), ZA 0.25 mg SC + 24000 U rHuPH20, individual subjects) was 29.7 ng·h/mL and the AUC(0-t) (AUC (0-12h), ZA 0.25 mg SC + 24000 U rHuPH20, mean, n=3) was 29.5 ng·h/mL. It also gave an AUC(0-t) (AUC (0-12h), ZA 0.25 mg SC + 24000 U rHuPH20, median, n=3) of 29.5 ng·h/mL, an AUC(0-t) (AUC (0-12h), ZA 0.5 mg SC + 24000 U rHuPH20, individual subjects) of 60.8 ng·h/mL and an AUC(0-t) (AUC (0-12h), ZA 0.5 mg SC + 24000 U rHuPH20, mean, n=3) of 63.2 ng·h/mL. For the same compound, the AUC(0-t) (AUC (0-12h), ZA 0.5 mg SC + 24000 U rHuPH20, median, n=3) was 62.4 ng·h/mL, the AUC(0-t) (AUC (0-12h), ZA 1 mg SC + 24000 U rHuPH20, individual subjects) was 103 ng·h/mL and the AUC(0-t) (AUC (0-12h), ZA 1 mg SC + 24000 U rHuPH20, mean, n=3) was 115 ng·h/mL. It also gave an AUC(0-t) (AUC (0-12h), ZA 1 mg SC + 24000 U rHuPH20, median, n=3) of 104 ng·h/mL, an AUC(0-t) (AUC (0-12h), ZA 2 mg SC + 24000 U rHuPH20, individual subjects) of 218 ng·h/mL and an AUC(0-t) (AUC (0-12h), ZA 2 mg SC + 24000 U rHuPH20, mean, n=3) of 223 ng·h/mL. The AUC(0-t) (AUC (0-12h), ZA 2 mg SC + 24000 U rHuPH20, median, n=3) was 218 ng·h/mL, the AUC(0-t) (AUC (0-12h), ZA 5 mg SC + 24000 U rHuPH20, individual subjects) was 499 ng·h/mL and the AUC(0-t) (AUC (0-12h), ZA 5 mg SC + 24000 U rHuPH20, mean, n=3) was 517 ng·h/mL. The AUC(0-t) (AUC (0-12h), ZA 5 mg SC + 24000 U rHuPH20, median, n=3) was 499 ng·h/mL, the CL/F [5] was 2.47 mL/min/kg and the Cmax [5] was 6.84 ng/mL. It also gave an AUC(0-inf) (ZA 0.25 mg SC + 24000 U rHuPH20, individual subjects, read-out: AUC (0-∞)) of 30.8 ng·h/mL, an MRT (ZA 0.25 mg SC + 24000 U rHuPH20, individual subjects, read-out: MRT) of 2.93 h and a Tmax [5] of 1.06 h. It also gave a Vd/F (ZA 0.25 mg SC + 24000 U rHuPH20, individual subjects, read-out: Vss/F) of 0.435 L/kg, a Vd/F (ZA 0.25 mg SC + 24000 U rHuPH20, individual subjects, read-out: Vz/F) of 0.402 L/kg and a CL/F [6] of 2 mL/min/kg. For the same compound, the Cmax [6] was 6.75 ng/mL, the AUC(0-inf) (ZA 0.25 mg SC + 24000 U rHuPH20, mean, n=3, read-out: AUC (0-∞)) was 30.9 ng·h/mL and the MRT (ZA 0.25 mg SC + 24000 U rHuPH20, mean, n=3, read-out: MRT) was 3.5 h. The Tmax [6] was 1.31 h, the Vd/F (ZA 0.25 mg SC + 24000 U rHuPH20, mean, n=3, read-out: Vss/F) was 0.411 L/kg and the Vd/F (ZA 0.25 mg SC + 24000 U rHuPH20, mean, n=3, read-out: Vz/F) was 0.364 L/kg. For the same compound, the CL/F [7] was 1.8 mL/min/kg, the Cmax [7] was 6.84 ng/mL and the AUC(0-inf) (ZA 0.25 mg SC + 24000 U rHuPH20, median, n=3, read-out: AUC (0-∞)) was 30.8 ng·h/mL. The MRT (ZA 0.25 mg SC + 24000 U rHuPH20, median, n=3, read-out: MRT) was 3.37 h, the Tmax [7] was 1.31 h and the Vd/F (ZA 0.25 mg SC + 24000 U rHuPH20, median, n=3, read-out: Vss/F) was 0.433 L/kg. For the same compound, the Vd/F (ZA 0.25 mg SC + 24000 U rHuPH20, median, n=3, read-out: Vz/F) was 0.363 L/kg, the MRT (ZA 0.25 mg, SC […] infusion, 100 mL, 3 mL/min, 24000 Units rHuPH20, extrapolated to ∞, individual subjects, read-out: SC MRT) was 3.37 h and the CL/F [8] was 2.35 mL/min/kg. For the same compound, the Cmax [8] was 15.3 ng/mL, the AUC(0-inf) (ZA 0.5 mg SC + 24000 U rHuPH20, individual subjects, read-out: AUC (0-∞)) was 62.5 ng·h/mL and the MRT (ZA 0.5 mg SC + 24000 U rHuPH20, individual subjects, read-out: MRT) was 3.19 h. It also gave a Tmax [8] of 0.81 h, a Vd/F (ZA 0.5 mg SC + 24000 U rHuPH20, individual subjects, read-out: Vss/F) of 0.451 L/kg and a Vd/F (ZA 0.5 mg SC + 24000 U rHuPH20, individual subjects, read-out: Vz/F) of 0.456 L/kg. For the same compound, the CL/F [9] was 2.08 mL/min/kg, the Cmax [9] was 15.5 ng/mL and the AUC(0-inf) (ZA 0.5 mg SC + 24000 U rHuPH20, mean, n=3, read-out: AUC (0-∞)) was 65 ng·h/mL. It also gave an MRT (ZA 0.5 mg SC + 24000 U rHuPH20, mean, n=3, read-out: MRT) of 3.26 h, a Tmax [9] of 1.14 h and a Vd/F (ZA 0.5 mg SC + 24000 U rHuPH20, mean, n=3, read-out: Vss/F) of 0.406 L/kg. For the same compound, the Vd/F (ZA 0.5 mg SC + 24000 U rHuPH20, mean, n=3, read-out: Vz/F) was 0.407 L/kg, the CL/F [10] was 2.18 mL/min/kg and the Cmax [10] was 15.3 ng/mL. The AUC(0-inf) (ZA 0.5 mg SC + 24000 U rHuPH20, median, n=3, read-out: AUC (0-∞)) was 64.4 ng·h/mL, the MRT (ZA 0.5 mg SC + 24000 U rHuPH20, median, n=3, read-out: MRT) was 3.24 h and the Tmax [10] was 1.31 h. For the same compound, the Vd/F (ZA 0.5 mg SC + 24000 U rHuPH20, median, n=3, read-out: Vss/F) was 0.423 L/kg, the Vd/F (ZA 0.5 mg SC + 24000 U rHuPH20, median, n=3, read-out: Vz/F) was 0.428 L/kg and the CL/F [11] was 2.38 mL/min/kg. It also gave a Cmax [11] of 30.1 ng/mL and an AUC(0-inf) (ZA 1 mg SC + 24000 U rHuPH20, individual subjects, read-out: AUC (0-∞)) of 122 ng·h/mL.
